From ChEMBL document CHEMBL1201862, “PubChem BioAssay data set” (2004)
Active and inactive are the calls of the source.

How the values were obtained:
[1] = A Cell Based Secondary Assay To Explore Cytotoxicity of Compounds that Sensitize Mycobacterium Tuberculosis to Beta-Lactam Antibiotics.; format: functional
[2] = biological target: T1, E3 ubiquitin-protein ligase XIAP (Homo sapiens, UniProt P98170); assay: Counter Screen using XIAP-Bir3 for Chemical Antagonists of Bir1/2 domains of IAP-family anti-apoptotic proteins. [Related pubchem assays (depositor defined):AID1018, AID1449, AID1514, AID1638, AID1749, AID1750, AID488957, AID488963]
[3] = biological target: T1, E3 ubiquitin-protein ligase XIAP; assay: XIAP antagonists, biochemical, IAP family, fluorescence polarization (AID 1018); format: functional
Caspase-3 = biological target: T2, Caspase-3 (Homo sapiens, UniProt P42574); format: functional;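 further: Dose-response selectivity test against caspase-3 for candidate inhibitors of sentrin-specific proteases (SENPs)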
T2 sequence (P42574 whole entry): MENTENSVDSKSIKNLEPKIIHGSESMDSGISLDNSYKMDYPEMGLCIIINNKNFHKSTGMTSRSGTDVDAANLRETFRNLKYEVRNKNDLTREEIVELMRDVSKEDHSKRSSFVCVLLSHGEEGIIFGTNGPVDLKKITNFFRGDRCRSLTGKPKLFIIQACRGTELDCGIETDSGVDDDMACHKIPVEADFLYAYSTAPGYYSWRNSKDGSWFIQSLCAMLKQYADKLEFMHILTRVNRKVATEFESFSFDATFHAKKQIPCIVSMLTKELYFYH

[4] = biological target: T3, Sentrin-specific protease 7 (Homo sapiens, UniProt Q9BQF6); format: functional;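 further: Luminescence-based dose-response confirmation of ultra-high-throughput screening hits, measuring inhibition of SENP7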
T3 sequence (Q9BQF6 whole entry): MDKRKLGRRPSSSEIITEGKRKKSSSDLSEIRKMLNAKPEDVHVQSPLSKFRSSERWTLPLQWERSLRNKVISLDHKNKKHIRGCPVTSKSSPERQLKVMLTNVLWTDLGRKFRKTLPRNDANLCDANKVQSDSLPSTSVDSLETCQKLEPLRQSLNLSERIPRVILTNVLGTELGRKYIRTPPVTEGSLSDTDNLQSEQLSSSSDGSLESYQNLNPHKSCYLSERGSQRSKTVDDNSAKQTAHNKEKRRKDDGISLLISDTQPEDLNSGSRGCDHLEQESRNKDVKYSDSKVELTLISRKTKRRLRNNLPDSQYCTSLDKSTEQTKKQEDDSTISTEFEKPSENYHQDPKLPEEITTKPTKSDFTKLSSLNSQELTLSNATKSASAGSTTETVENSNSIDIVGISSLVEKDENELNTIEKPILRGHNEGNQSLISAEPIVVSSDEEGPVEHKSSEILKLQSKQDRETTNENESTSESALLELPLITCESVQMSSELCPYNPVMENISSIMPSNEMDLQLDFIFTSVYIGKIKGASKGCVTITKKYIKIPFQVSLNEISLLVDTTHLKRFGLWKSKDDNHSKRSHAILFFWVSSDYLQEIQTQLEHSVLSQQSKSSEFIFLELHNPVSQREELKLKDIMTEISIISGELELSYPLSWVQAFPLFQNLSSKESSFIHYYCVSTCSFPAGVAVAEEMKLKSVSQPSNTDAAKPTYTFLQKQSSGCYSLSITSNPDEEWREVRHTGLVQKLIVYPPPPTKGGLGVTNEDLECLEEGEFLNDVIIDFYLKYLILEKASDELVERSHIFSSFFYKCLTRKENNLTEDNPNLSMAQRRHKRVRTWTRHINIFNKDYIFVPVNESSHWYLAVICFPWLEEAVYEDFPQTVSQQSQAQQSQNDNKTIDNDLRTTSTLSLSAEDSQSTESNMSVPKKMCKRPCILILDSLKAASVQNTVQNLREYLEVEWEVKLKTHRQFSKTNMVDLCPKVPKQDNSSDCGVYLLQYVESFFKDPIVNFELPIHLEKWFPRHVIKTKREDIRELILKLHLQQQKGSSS

[5] = Luminescence Cell-Based Dose Confirmation to Identify Activators of 5'UTR Stem-Loop Driven Alpha-Synuclein mRNA Translation in H4 Neuroglioblastoma Cells. [Related pubchem assays: 1829 (Project Summary), 1814 (Primary HTS)]; format: functional
[6] = Luminescence Cell-Based Dose Response to Identify Activators of Luciferase Translation or Activity in H4-C Neuroglioblastoma Cells. [Related pubchem assays: 1829 (Project Summary), 1814 (Primary HTS)]; format: functional
[7] = biological target: T4, Sentrin-specific protease 6 (Homo sapiens, UniProt Q9GZR1); format: functional;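 further: Luminescence-based dose-response confirmatory assay of SENP6 inhibition, following up an ultra-high-throughput screen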
T4 sequence (Q9GZR1 whole entry): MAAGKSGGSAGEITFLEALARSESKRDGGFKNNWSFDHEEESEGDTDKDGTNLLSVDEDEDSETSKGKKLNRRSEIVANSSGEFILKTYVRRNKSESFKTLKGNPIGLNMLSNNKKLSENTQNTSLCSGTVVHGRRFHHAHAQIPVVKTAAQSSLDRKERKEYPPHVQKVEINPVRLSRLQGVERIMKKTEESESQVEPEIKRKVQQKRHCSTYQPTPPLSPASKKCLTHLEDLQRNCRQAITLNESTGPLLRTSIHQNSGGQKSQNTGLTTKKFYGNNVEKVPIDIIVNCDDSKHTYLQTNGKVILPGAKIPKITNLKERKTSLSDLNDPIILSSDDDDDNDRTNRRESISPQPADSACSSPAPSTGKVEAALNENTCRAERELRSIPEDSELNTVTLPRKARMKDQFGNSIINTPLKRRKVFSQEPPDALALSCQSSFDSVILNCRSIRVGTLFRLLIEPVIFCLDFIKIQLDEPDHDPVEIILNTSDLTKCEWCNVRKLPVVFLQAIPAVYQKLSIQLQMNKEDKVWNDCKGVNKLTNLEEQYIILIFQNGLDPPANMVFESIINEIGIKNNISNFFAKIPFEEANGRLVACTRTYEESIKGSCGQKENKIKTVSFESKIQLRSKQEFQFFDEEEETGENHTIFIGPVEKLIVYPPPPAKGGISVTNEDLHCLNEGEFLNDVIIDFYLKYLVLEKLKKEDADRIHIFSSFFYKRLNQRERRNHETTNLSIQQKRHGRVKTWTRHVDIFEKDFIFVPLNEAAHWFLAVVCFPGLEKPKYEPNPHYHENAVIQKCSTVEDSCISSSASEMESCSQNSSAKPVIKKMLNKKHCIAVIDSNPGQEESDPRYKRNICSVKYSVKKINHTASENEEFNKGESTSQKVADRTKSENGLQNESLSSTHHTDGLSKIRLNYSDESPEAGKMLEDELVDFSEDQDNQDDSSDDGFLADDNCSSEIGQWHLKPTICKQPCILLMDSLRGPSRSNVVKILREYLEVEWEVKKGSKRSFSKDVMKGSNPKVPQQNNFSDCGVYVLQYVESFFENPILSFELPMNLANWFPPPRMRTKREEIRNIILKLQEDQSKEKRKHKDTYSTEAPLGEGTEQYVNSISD

H4 = assay: Luminescence Cell-Based Dose Response HTS to Identify Activators of 5'UTR Stem-Loop Driven Prion Protein mRNA Translation in H4 Neuroglioblastoma Cells. [Related pubchem assays: 1829 (Project Summary), 1814 (Primary HTS)]; format: functional; details: Homo sapiens
[8] = biological target: T5, Sentrin-specific protease 8 (Homo sapiens, UniProt Q96LD8); format: functional;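 further: luminescence read-out of SENP8 inhibition, dose-response confirmation following an ultra-high-throughput screen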
T5 sequence (Q96LD8 whole entry): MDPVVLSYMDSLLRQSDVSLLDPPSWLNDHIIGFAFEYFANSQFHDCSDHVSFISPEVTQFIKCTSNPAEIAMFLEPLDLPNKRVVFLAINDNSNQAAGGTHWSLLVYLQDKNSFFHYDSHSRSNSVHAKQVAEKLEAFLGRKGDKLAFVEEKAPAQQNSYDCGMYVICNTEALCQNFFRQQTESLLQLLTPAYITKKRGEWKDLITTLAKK

[9] = Luminescence Cell-Based Dose Response to Identify Activators of 5'UTR Stem-Loop Driven Prion Protein mRNA Translation in H4-C Neuroglioblastoma Cells. [Related pubchem assays: 1829 (Project Summary), 1814 (Primary HTS)]; format: functional
[10] = biological target: G-protein coupled receptor 55 (Homo sapiens, UniProt Q9Y2T6); assay: GPR55 antagonists blocking LPI-driven arrestin recruitment, primary screen, imaging, U2OS, beta-arrestin-GFP, LPI agonist (AID 2013); format: functional;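 further: antagonist potency measured as reduced agonist-driven arrestin aggregation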
[11] = cytotoxicity toward NIH3T3 fibroblasts, dose response, counter-screen, cell-based, ATP luminescence, mouse fibroblasts (AID 2010); format: functional;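 further: cells exposed to compound for about 90 hours before reading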
[12] = inhibitors of intracellular T. cruzi replication, confirmation, NIH3T3 host cells, beta-gal luminescence (AID 2044); format: functional, cell-based;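 further: intracellular parasites grown in NIH/3T3 mouse fibroblasts as host cells; luminescent beta-galactosidase reporter signal from transgenic T. cruzi replicating inside host cells; inhibitors lower the luminescence signal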
[13] = HEp-2 cell cytotoxicity, dose response, cytotoxicity control for RSV inhibitor project, HTS (AID 2410); format: functional; details: human respiratory syncytial virus
[14] = THP-1 cell cytotoxicity, dose response, cytotoxicity control for Vif-APOBEC3G degradation inhibitor project, THP-1 cells (AID 1117359); format: functional; details: Human immunodeficiency virus 1, THP-1
[15] = biological target: T6, Tyrosine-protein phosphatase non-receptor type 7 (Homo sapiens, UniProt P35236); assay: redox-dependent HePTP inhibition, mechanism study, biochemical, fluorescence (AID 2068); format: functional
T6 sequence (P35236 whole entry): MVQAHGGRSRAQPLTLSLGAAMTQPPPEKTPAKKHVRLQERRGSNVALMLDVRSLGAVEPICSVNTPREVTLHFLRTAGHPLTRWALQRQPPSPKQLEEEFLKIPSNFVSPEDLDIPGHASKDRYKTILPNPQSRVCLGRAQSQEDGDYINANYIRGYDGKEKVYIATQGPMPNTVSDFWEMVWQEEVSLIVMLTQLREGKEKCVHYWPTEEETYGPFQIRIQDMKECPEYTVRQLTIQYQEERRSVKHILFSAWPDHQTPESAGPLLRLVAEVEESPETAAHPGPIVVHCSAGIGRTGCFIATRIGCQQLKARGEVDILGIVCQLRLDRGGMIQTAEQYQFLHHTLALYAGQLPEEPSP

Chain of G-protein coupled receptor 55 (Q9Y2T6 whole entry): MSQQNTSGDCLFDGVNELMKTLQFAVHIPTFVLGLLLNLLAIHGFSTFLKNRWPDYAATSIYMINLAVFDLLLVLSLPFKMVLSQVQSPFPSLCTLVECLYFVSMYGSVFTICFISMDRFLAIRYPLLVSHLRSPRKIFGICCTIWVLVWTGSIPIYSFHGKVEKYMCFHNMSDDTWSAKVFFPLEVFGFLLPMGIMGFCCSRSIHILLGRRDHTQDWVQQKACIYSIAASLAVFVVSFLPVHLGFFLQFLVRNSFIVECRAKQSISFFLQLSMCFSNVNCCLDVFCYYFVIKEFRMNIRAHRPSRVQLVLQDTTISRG
T1 sequence (P98170 whole entry): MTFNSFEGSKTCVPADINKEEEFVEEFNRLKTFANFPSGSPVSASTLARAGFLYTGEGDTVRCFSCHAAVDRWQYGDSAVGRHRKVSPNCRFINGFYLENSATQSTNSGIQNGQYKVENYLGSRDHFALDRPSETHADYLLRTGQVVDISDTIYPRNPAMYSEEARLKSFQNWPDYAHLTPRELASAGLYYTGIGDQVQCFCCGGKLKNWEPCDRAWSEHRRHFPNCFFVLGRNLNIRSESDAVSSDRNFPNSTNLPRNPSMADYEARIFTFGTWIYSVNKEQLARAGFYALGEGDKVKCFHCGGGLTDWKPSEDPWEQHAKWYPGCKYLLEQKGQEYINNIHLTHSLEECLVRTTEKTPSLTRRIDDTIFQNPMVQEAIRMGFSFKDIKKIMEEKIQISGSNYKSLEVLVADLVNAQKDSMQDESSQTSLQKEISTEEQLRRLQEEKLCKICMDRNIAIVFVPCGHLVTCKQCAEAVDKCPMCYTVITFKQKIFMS

SMILES: Cc1nc(SCC(=O)NCc2ccco2)c2c3c(sc2n1)CCCC3
- CC50 [1]: 19.8 µM (active)

SMILES: O=C(Nc1ccc(F)cc1)c1ccccc1CC[N+](=O)[O-]
- IC50 [2]: > 100 µM (inactive)
- IC50 [3]: > 100 µM (not active)

SMILES: Cc1cccc(-c2cc3nc4c(c(N5CCOCC5)n3n2)CCCC4)c1
- IC50 (Caspase-3): 12.4 µM (active)
- IC50 [4]: 12.9 µM (active)
- EC50 [5]: 0.228 µM (active)
- EC50 [6]: 0.514 µM (active)
- IC50 [7]: 18.5 µM (active)
- EC50 (H4): < 0.1 µM (active)
- IC50 [8]: 19.4 µM (active)
- EC50 [9]: 0.734 µM (active)

SMILES: CCCCN(C)Cc1cc(=O)oc2cc3c(cc12)CCCC3
- CC50 [1]: > 40 µM (active)

SMILES: CC1CC(N(C(=O)c2ccco2)c2ccccc2)c2ccccc2N1C(=O)c1ccco1 (centres undefined)
- IC50 [10]: 5.52 µM (active)

SMILES: O=C1CSC(c2ccccc2Br)N1c1ccc(Cl)cn1 (centres undefined)
- IC50 [10]: 4.58 µM (active)

SMILES: O=C(Nc1ccc(Cl)cc1)N(Cc1cccnc1)Cc1ccco1
- EC50 [11]: > 30 µM (not active)
- IC50 [2]: > 100 µM (inactive)
- EC50 [12]: 1.1 µM (active)
- IC50 [3]: > 100 µM (not active)

SMILES: COc1ccccc1NC(=O)CCn1c(=O)c2cccn2c2ccccc21
- IC50 (cells): 43.8 µM (active)
- CC50 [13]: > 50 µM (active)

SMILES: CCn1c(=O)c2cc(C(=O)N(C)c3ccccc3F)sc2c2ccccc21
- EC50 [11]: > 30 µM (not active)
- EC50 [12]: 1.04 µM (active)
- CC50 [1]: > 40 µM (active)
- CC50 [14]: > 40 µM (active)

SMILES: CCOC(=O)c1c(CSC(=N)N)n(C)c2cc(Br)c(OC(C)=O)cc12
- IC50 [10]: 1.22 µM (active)

SMILES: Cc1ccc2cc(CN(Cc3ccco3)C(=O)c3ccco3)c3nnnn3c2c1
- IC50 (cells): 44.3 µM (active)
- CC50 [13]: > 50 µM (active)

SMILES: C=CCn1c(SCC(=O)NCc2ccco2)nnc1-c1ccc2ccccc2n1
- IC50 [2]: > 100 µM (inactive)
- IC50 [3]: > 100 µM (not active)

SMILES: Cc1ccc(Cn2c(SCC(=O)N3CC(=O)Nc4ccccc43)nc3ccccc3c2=O)cc1
- IC50 (cells): 42 µM (active)
- CC50 [13]: 40.2 µM (active)

SMILES: COc1cc2c(cc1OC)-c1cc(NC3CCCC3)nc(=O)n1CC2
- IC50 [2]: > 100 µM (inactive)
- IC50 [3]: > 100 µM (not active)

SMILES: O=C(Nc1ccc(Cl)cc1)Nc1ccc2nc(-c3ccco3)c(-c3ccco3)nc2c1
- IC50 [15]: 0.949 µM (active)
